Here are results for eleven molecules from PubChem BioAssay (NCI).

Test systems include CCRF-CEM leukemia; IGROV1 ovarian; DU-145 prostate; MCF7 breast; OVCAR-5 ovarian; 786-0 renal; OVCAR-4 ovarian; SW-620 colon; SF-539 CNS; UO-31 renal; SK-MEL-2 melanoma; SNB-75 CNS; HCC-2998 colon.
Common to all, as to experiment: NCI tumour cell line growth inhibition, 48 h

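Step 1: Grow cells in 96-well plates. Step 2: Expose to compound for 48 hours at 5 concentrations. Step 3: Interpolate endpoints linearly; if unreached, use highest concentration. TGI: concentration producing complete growth inhibition.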

With `COc1cc(C2SCC(=O)N2NC(=O)c2ccc(NC(C)=O)cc2OC)ccc1O` (stereo not drawn), the TGI in the assay on CCRF-CEM leukemia is > 100 µM; with IGROV1 ovarian it was > 100 µM; in the assay on DU-145 prostate, > 100 µM; with MCF7 breast it was > 100 µM; in the assay on OVCAR-5 ovarian, 65.1 µM; in the assay on 786-0 renal, > 100 µM. Also, the TGI in the assay on OVCAR-4 ovarian was > 100 µM; in the assay on SW-620 colon, > 100 µM; in the assay on SF-539 CNS it was > 100 µM; with UO-31 renal it was > 100 µM; in the assay with SK-MEL-2 melanoma, 68.6 µM; with SNB-75 CNS, 46.7 µM.

As for `C=C(C)C1CC2=C(O1)C(=O)c1cccc(O)c1C2=O` (stereo not drawn), the TGI with IGROV1 ovarian was 0.617 µM; with DU-145 prostate it was 3.15 µM; with MCF7 breast, 1.96 µM; in the assay with OVCAR-5 ovarian, 3.01 µM; with 786-0 renal, > 100 µM; with OVCAR-4 ovarian it was 0.926 µM. Besides, the TGI with SW-620 colon was determined as 2.96 µM; with SF-539 CNS, 1.89 µM; in the assay with UO-31 renal, 2.84 µM; with HCC-2998 colon, 3.97 µM; in the assay on SK-MEL-2 melanoma, 2.68 µM; in the assay on SNB-75 CNS, 3.87 µM.

For `NS(=O)(=O)c1nnc(NC(=O)/C=C/C(=O)O)s1`, the TGI in the assay with DU-145 prostate, in the assay with MCF7 breast, in the assay with OVCAR-5 ovarian, with 786-0 renal, in the assay with OVCAR-4 ovarian and in the assay with SW-620 colon was > 100 µM in each case. For the same molecule, the TGI with SF-539 CNS, in the assay with UO-31 renal, in the assay with HCC-2998 colon and in the assay on SK-MEL-2 melanoma was > 100 µM throughout.

Regarding `Cc1nn(C(=O)c2ccncc2)c2c1C(c1ccc([N+](=O)[O-])cc1)SC(N)=N2` (stereo not drawn), the TGI with CCRF-CEM leukemia, in the assay with IGROV1 ovarian, in the assay on DU-145 prostate, in the assay on MCF7 breast, in the assay with OVCAR-5 ovarian and with 786-0 renal was > 100 µM each time. Further, the TGI in the assay on OVCAR-4 ovarian, in the assay on SW-620 colon, with SF-539 CNS, in the assay on UO-31 renal, in the assay on SK-MEL-2 melanoma and in the assay with SNB-75 CNS was > 100 µM throughout.

`Nc1ncnc2c1cnn2COCC(O)CO` (stereo not drawn): the TGI in the assay with CCRF-CEM leukemia, with IGROV1 ovarian, in the assay on DU-145 prostate, in the assay on MCF7 breast, in the assay on OVCAR-5 ovarian and with 786-0 renal was > 100 µM each time. The TGI in the assay on OVCAR-4 ovarian, with SW-620 colon, in the assay with SF-539 CNS, in the assay on UO-31 renal, with HCC-2998 colon and in the assay with SK-MEL-2 melanoma was > 100 µM each time.

Consider `COc1cc2c3c(c1OC)C(=O)C(=O)C1=C3N(CCC1)CC2`, for which the TGI in the assay with CCRF-CEM leukemia is 80.4 µM; with IGROV1 ovarian, > 100 µM; with DU-145 prostate it was > 100 µM; in the assay with MCF7 breast, 37.2 µM; in the assay with OVCAR-5 ovarian, > 100 µM; with 786-0 renal, > 100 µM. The TGI in the assay with OVCAR-4 ovarian is 62.2 µM; in the assay on SW-620 colon, > 100 µM; with SF-539 CNS, 80.1 µM; in the assay with UO-31 renal it was > 100 µM; in the assay on HCC-2998 colon it was > 100 µM; with SK-MEL-2 melanoma it was > 100 µM.

On to `OC[C@@H](O)[C@H](O)[C@@H](O)/C=N/Nc1ccc(Cl)nn1`, for which the TGI in the assay with CCRF-CEM leukemia, with IGROV1 ovarian, with DU-145 prostate, with MCF7 breast, in the assay with OVCAR-5 ovarian and in the assay on 786-0 renal was > 100 µM in each case. In addition, the TGI in the assay with OVCAR-4 ovarian, in the assay on SW-620 colon, with SF-539 CNS, with HCC-2998 colon and in the assay with SK-MEL-2 melanoma was > 100 µM each time.

On to `CC1=CC(=O)/C(=C/N2C(=O)CNC2=S)C(=O)O1`, for which the TGI in the assay on IGROV1 ovarian, in the assay on DU-145 prostate, in the assay with MCF7 breast, in the assay with OVCAR-5 ovarian, in the assay on 786-0 renal and with OVCAR-4 ovarian was > 100 µM each time. Besides, the TGI in the assay with SW-620 colon, in the assay on SF-539 CNS, in the assay on UO-31 renal, with HCC-2998 colon, with SK-MEL-2 melanoma and with SNB-75 CNS was > 100 µM in each case.

For `CC(C)C1=CC23CCC4C(C)(C(=O)O)CCCC4(C)C2CC1C1C(=O)N(c2cccc(N4C(=O)C5C6CC7C8(C)CCCC(C)(C(=O)O)C8CCC7(C=C6C(C)C)C5C4=O)c2)C(=O)C13` (stereo not drawn), the TGI was 26.2 µM with CCRF-CEM leukemia; 22.7 µM in the assay on DU-145 prostate; 16 µM with MCF7 breast; 20 µM in the assay on OVCAR-5 ovarian; > 100 µM with 786-0 renal; > 100 µM with OVCAR-4 ovarian. The TGI in the assay on SW-620 colon was determined as 31.4 µM; with SF-539 CNS, 57.7 µM; in the assay on UO-31 renal it was 29.1 µM; with HCC-2998 colon it was 20.3 µM; in the assay with SK-MEL-2 melanoma, 29.9 µM.

In the case of `O=C(NNC(=O)c1c(Cl)c(Cl)c(Cl)c(Cl)c1-c1nc2ccccc2[nH]1)c1ccc(Cl)cc1`, the TGI was 67.9 µM in the assay on CCRF-CEM leukemia; > 100 µM in the assay with IGROV1 ovarian; > 100 µM with DU-145 prostate; > 100 µM with MCF7 breast; > 100 µM in the assay with OVCAR-5 ovarian; > 100 µM in the assay with 786-0 renal. For the same molecule, the TGI with OVCAR-4 ovarian, in the assay with SW-620 colon, in the assay on SF-539 CNS, in the assay on UO-31 renal, with SK-MEL-2 melanoma and in the assay with SNB-75 CNS was > 100 µM each time.

Regarding `Fc1cc2nc3n(c2cc1F)C(c1c(Cl)cccc1Cl)SC3` (stereo not drawn), the TGI in the assay with IGROV1 ovarian is 34 µM; with DU-145 prostate it was 32.2 µM; with MCF7 breast it was 33.1 µM; in the assay on OVCAR-5 ovarian it was 27.7 µM; in the assay with 786-0 renal, 28.3 µM; with OVCAR-4 ovarian, 30.1 µM. The TGI was found to be 34 µM in the assay on SW-620 colon; 37.1 µM with SF-539 CNS; 29.3 µM in the assay on UO-31 renal; 29.3 µM in the assay with HCC-2998 colon; 33.6 µM with SK-MEL-2 melanoma; 26.8 µM in the assay on SNB-75 CNS.
